This passage reports IC50 results from patent US12012406B1, “Pyrido[4,3-e]pyrrolo[1,2-a]pyrimidine as CK2 inhibitors” (KING FAISAL UNIVERSITY, priority 2024, dated 2024).

For one assay, the system named is HCT116 (colon). Kind of assay: In vitro cytotoxic activity MTT assay, HCT116. Format: cell-based. The following applies: Homo sapiens, HCT-116, cells exposed for 96 hours, read-out: Cytotoxicity activity IC50 (50% inhibition of cell proliferation). As for the experimental part:
(§1) Compounds 1-16 were screened for their in vitro cytotoxic activity utilizing a 3-(4,5-dimethyl-thiazol-2-yl)-2,5-diphenyltetrazolium bromide (MTT) assay against selected cancer human cell lines consisting of PC3 (prostate), HCT116 (colon), A375 (melanoma), H1299 (lung), MIAPaCa-2 (pancreas), HL60 (leukemia), MCF7 (breast), MDA-MB-231 (breast) (T. Mosmann, J. Immunol. Meth., 1983, 65, 55-63). The cells were cultured at 37° C. in RMPI1640 medium supplemented with 10% fetal bovine serum, 50 IU/mL penicillin, and 50 μg/mL streptomycin in a 5% CO2 incubator. All cells were sub-cultured 3 times/week by trypsinisation. Viable cells were seeded and allowed to adhere for 12 hours before a test drug was added in 96-well plates at an initial density of 1.0×10^5 cells/mL. Tumor cell lines were separately exposed to various concentrations of the tested compounds followed by incubation at a temperature of 37° C. during 96 hours inside a medium of fresh RMPI 1640. Cells were subsequently incubated at 37° C. using MTT at 0.5 mg/mL during 4 hours. After removal of supernatant, formazan crystals were dissolved in isopropanol and the optical density was measured at 570 nm. CX-4945 was used as a positive control.
On the technique in general: Tetrazolium dyes change colour on reduction, which living cells bring about.

Another assay relates to MCF7 (breast). Kind of assay: In vitro cytotoxic activity MTT assay, MCF7. To be noted: Homo sapiens, cells exposed for 96 hours, read-out: Cytotoxicity activity IC50 (50% inhibition of cell proliferation). The class given is cell-based. As for the experimental part: as §1
In the next assay the test system is MIAPaCa-2 (pancreas). Kind of assay: In vitro cytotoxic activity MTT assay, MIAPaCa-2. Format: cell-based. To be noted: Homo sapiens, MIA PaCa-2, cells exposed for 96 hours, read-out: Cytotoxicity activity IC50 (50% inhibition of cell proliferation). As for the experimental part: as §1
Another assay concerns HL60 (leukemia). Kind of assay: In vitro cytotoxic activity MTT assay, HL60. The class given is cell-based. The following applies: Homo sapiens, HL-60, cells exposed for 96 hours, read-out: Cytotoxicity activity IC50 (50% inhibition of cell proliferation). As for the experimental part: as §1
A further assay relates to PC3 (prostate). The assay can be described thus: In vitro cytotoxic activity MTT assay, PC3. The class given is cell-based. To be noted: Homo sapiens, Prostate cell, cells exposed for 96 hours, read-out: Cytotoxicity activity IC50 (50% inhibition of cell proliferation). As for the experimental part: as §1
Assay [1] addresses T1, recombinant human CK2 (RRBB-holoenzyme) (Homo sapiens, UniProt P68400).
T1 construct: purchased Millipore
Kind of assay: CK2 Kinase Assay (33P-ATP, filter plate). Format: biochemical. The following applies: recombinant human CK2, final ATP concentration 15 μM, 10 min at 30° C.; read-out: protein kinase CK2 inhibition IC50. As for the experimental part: CK2 Kinase Assay was conducted using the protocol as described in Pierre F. et al; J. Med. Chem. 2011, 54, 635-654. The tested compounds in aqueous solution were added at a volume of 10 μL to a reaction mixture comprising 10 μL of assay dilution buffer (ADB; 20 mM MOPS, pH 7.2, 25 mM B-glycerol phosphate, 5 mM EGTA, 1 mM sodium orthovanadate, and 1 mM dithiothreitol), 10 μL of substrate peptide (RRRDDDSDDD, dissolved in ADB at a concentration of 1 mM), 10 μL of recombinant human CK2 (RRBB-holoenzyme, 25 ng dissolved in ADB; Millipore). Reactions were initiated by the addition of 10 μL of ATP solution (90% 75 mMMgCl2, 75 μM ATP (final ATP concentration: 15 μM) dissolved in ADB; 10% [γ-33P] ATP (stock 1mCi/100 μL; 3000 Ci/mmol (Perkin-Elmer) and maintained for 10 min at 30° C. The reactions were quenched with 100 μL of 0.75% phosphoric acid and then transferred to and filtered through a phosphor cellulose filter plate (Millipore). After washing each well five times with 0.75% phosphoric acid, the plate was dried under vacuum for 5 min and, following the addition of 15 μL of scintillation fluid to each well, the residual radioactivity was measured using a Wallac luminescence counter. The IC50 values were derived from eight concentrations of test inhibitors.

The test system of another assay is A375 (melanoma). Kind of assay: In vitro cytotoxic activity MTT assay, A375. Format: cell-based. To be noted: Homo sapiens, A-375, cells exposed for 96 hours, read-out: Cytotoxicity activity IC50 (50% inhibition of cell proliferation). As for the experimental part:
as §1

For the next assay, the system named is MDA-MB-231 (breast). Kind of assay: In vitro cytotoxic activity MTT assay, MDA-MB-231. Format: cell-based. The following applies: Homo sapiens, cells exposed for 96 hours, read-out: Cytotoxicity activity IC50 (50% inhibition of cell proliferation). As for the experimental part: as §1
In another assay the test system is H1299 (lung). The assay can be described thus: In vitro cytotoxic activity MTT assay, H1299. The class given is cell-based. The following applies: Homo sapiens, NCI-H1299, cells exposed for 96 hours, read-out: Cytotoxicity activity IC50 (50% inhibition of cell proliferation). As for the experimental part: as §1

T1 sequence (P68400 whole entry): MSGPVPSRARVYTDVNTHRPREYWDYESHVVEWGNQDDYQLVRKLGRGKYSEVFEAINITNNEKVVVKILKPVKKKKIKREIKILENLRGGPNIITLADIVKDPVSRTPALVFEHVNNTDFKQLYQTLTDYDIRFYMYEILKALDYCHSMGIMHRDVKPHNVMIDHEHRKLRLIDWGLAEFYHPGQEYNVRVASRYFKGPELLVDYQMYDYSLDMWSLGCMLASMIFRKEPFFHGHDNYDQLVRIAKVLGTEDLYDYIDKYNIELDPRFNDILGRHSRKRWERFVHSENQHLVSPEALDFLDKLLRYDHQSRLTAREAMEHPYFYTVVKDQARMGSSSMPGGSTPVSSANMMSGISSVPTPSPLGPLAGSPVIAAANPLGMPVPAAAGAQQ
T1 sequence (P67870 whole entry partner): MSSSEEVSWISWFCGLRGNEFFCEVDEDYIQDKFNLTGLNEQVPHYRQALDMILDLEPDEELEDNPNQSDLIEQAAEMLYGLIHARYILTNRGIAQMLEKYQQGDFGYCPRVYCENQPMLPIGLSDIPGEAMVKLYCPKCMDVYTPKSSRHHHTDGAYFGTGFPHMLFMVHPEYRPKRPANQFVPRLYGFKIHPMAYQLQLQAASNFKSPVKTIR

For `O=C(O)c1ccn2c1nc(Nc1cccc(Cl)c1)c1ccncc12` [Compound 1, 5-((3-chlorophenyl)amino)pyrido[4,3-e]pyrrolo[1,2-a]pyrimidine-7-carboxylic acid], the IC50 in the assay with HCT116 (colon) was 2.1 µM; with MCF7 (breast), 5.6 µM; in the assay with MIAPaCa-2 (pancreas), 1.3 µM; with HL60 (leukemia), 3.5 µM; in the assay with PC3 (prostate) it was 2.4 µM; in [1] it was 0.089 µM. The IC50 in the assay on A375 (melanoma) was 4.6 µM; in the assay on MDA-MB-231 (breast), 4.2 µM; in the assay on H1299 (lung), 1.9 µM.
